Entries after “also recorded” stand apart in the source; their conditions may differ.
Key:
[1] = test system: HEK293T cells; experiment: LDH release of HEK293T cells expressing caspase-11 and GSDMD; format: cell-based
Procedure: FIG. 72 contains a bar graph showing results of an experiment when FL human WT or C191S GSDMD were co-expressed with caspase-11 in HEK293T cells. 8 h post transfection, the indicated amount of disulfiram was added and cell death was determined by LDH release 12 h later.
Cytotoxicity and cell viability assays: cell death and cell viability were determined by the lactate dehydrogenase release assay using the CytoTox 96 Non-Radioactive Cytotoxicity Assay kit (Promega) and by measuring ATP levels using the CellTiter-Glo Luminescent Cell Viability Assay (Promega), respectively, according to the manufacturer's instructions. Luminescence and absorbance were measured on a BioTek Synergy 2 plate reader.
To further confirm that disulfiram acts on Cys191, disulfiram inhibition of LDH release in HEK293T cells expressing caspase-11 and WT or C191S GSDMD was assessed.

[2] = molecular target: T1, human GSDMD-3C (Homo sapiens, UniProt P57764); experiment: Liposome leakage assay, GSDMD-3C plus 3C protease; format: biochemical; settings: GSDMD-3C plus 3C protease
T1 construct: other: GSDMD-3C plus 3C protease; fused on or other part: His6-MBP tag, removed by TEV before use; The engineered 3C site is cut in the well by 3C protease and sets free GSDMD-NT
Procedure: Liposome leakage assay: fluorogenic liposome leakage assay detects leakage of Tb^3+ from Tb^3+-loaded liposomes incubated with GSDMD and caspase-11 (See References 7 and 9). Liposome leakage was detected by an increase in fluorescence when Tb^3+ bound to dipicolinic acid (DPA) in Buffer C. […] The fluorescence intensity of the well was measured at 545 nm with an excitation of 276 nm 1 hr after addition of caspase-11 using a Perkin Elmer EnVision plate reader. The final percent inhibition was calculated as [(fluorescencetest compound−fluorescencenegative control)/(fluorescencepositive control−fluorescencenegative control)]×100, where a well with GSDMD without the test compound was used as positive control, and a well without caspase-11 was used as negative control.
[LC retention time. […] (b).
To determine the relative contribution of caspase-11 inhibition versus GSDMD inhibition by disulfiram in pore formation, the caspase cleavage site in GSDMD was replaced with the rhinovirus 3C protease site (GSDMD-3C) and the 3C protease was used instead of caspase-11 in the liposome leakage assay.

[3] = test system: IL-1β; experiment: IL-1β secretion by ELISA, iBMDM with LPS transfection; format: cell-based, mouse; settings: 40 μM
Procedure: (§1) Measurement of cytokines: concentrations of IL-1 (3 in culture supernatants or mouse serum were measured by ELISA kit (R&D Systems) according to the manufacturer's instructions. […] The number of surviving cells was determined by CellTiter-Glo assay (FIGS. 4 and 6) and IL-1β in culture supernatants was assessed by ELISA (FIG. 8) 2 hrs later. […] The number of surviving cells was determined by CellTiter-Glo assay (FIGS. 5 and 7) and IL-1β in culture supernatants was assessed by ELISA (FIG. 9) 2.5 hrs later.

[4] = test system: IL-1β; experiment: IL-1β secretion by ELISA, THP-1 plus nigericin; format: cell-based, human; settings: THP-1, 40 μM
Procedure: as §1

[5] = test system: caspase-1, GSDMD, and pro-IL-1β; experiment: Caspase-1, GSDMD, pro-IL-1β cleavage and IL-1β secretion by immunoblot, THP-1; format: cell-based, human
[6] = molecular target: C191A GSDMD (Homo sapiens, UniProt P57764, C191A)
[7] = test system: mouse iBMDMs; experiment: Processing of caspase-1, GSDMD and IL-1β in iBMDMs (immunoblot); format: cell-based; settings: 1 hr time point
Procedure: (§2) FIG. 97 contains a bar graph showing results of an experiment where LPS-primed THP-1 cells, after medium removal, were incubated with probe FAM-YVAD-FMK in FLICA assay buffer for another 0.5 hr before fluorescence reading. iBMDMs were pretreated with disulfiram, Bay 11-7082, necrosulfonamide (NSA) or z-VAD-fmk for 1 hr before treated or not with Nigericin for 0.5 hr. Whole cell lysates and culture supernatants were immunoblotted with the indicated antibodies.
as §2, with “FIG. 98” for “FIG. 97”, “for 1” for “for 0.5”
Canonical inflammasome assembly activates caspase-1, which cleaves pro-IL-1β and GSDMD, and the latter is needed to release processed IL-1β and to induce pyroptosis. To assess which steps in NLRP3-mediated inflammation were inhibited post ASC speck formation, LPS-primed THP-1 cells were treated with vehicle, 30 μM z-VAD-fmk or disulfiram 1 hour before adding nigericin, and cleavage and activation of caspase-1, GSDMD, and pro-IL-1β were analysed by immunoblot of whole cell lysates 30 min later and 1 hr later. Secretion of processed IL-1β was also assessed by immunoblot of culture supernatants. […] The 1 hr time point is relevant as the cell death and IL-1β release measurements used cells stimulated with nigericin for 1 and 2 hrs, respectively.

[8] = molecular target: T2, Alexa 488-labeled His-MBP-GSDMD (Homo sapiens, UniProt P57764); experiment: Microscale thermophoresis (MST) binding assay
T2 construct: made in house; host or cells: E. coli BL21 (DE3)
Procedure: Fluorescent protein labelling and microscale thermophoresis binding assay: His6-MBP-GSDMD was labeled with AlexaFluor-488 using the Molecular Probes protein labelling kit. Binding of inhibitors to GSDMD was evaluated using microscale thermophoresis (MST). Ligands (49 nM-150 μM) were incubated with purified AlexaFluor-488-labeled protein (80 nM) for 30 min in assay buffer (20 mM HEPES, 150 mM NaCl, 0.05% Tween 20). The sample was loaded into NanoTemper Monolith NT. 115 glass capillaries and MST carried out using 20% LED power and 40% MST power. Kd values were calculated using the mass action equation and NanoTemper software.
The test compounds were assessed for GSDMD binding by microscale thermophoresis (MST).

[9] = test system: THP-1 cells; experiment: Canonical inflammasome pyroptosis, LPS-primed THP-1 cells plus nigericin; format: cell-based, human; settings: THP-1, nigericin
Procedure: Cell viability assay. […] Primed THP-1 cells were pretreated with each test compound for 1 hr before addition of 20 μM nigericin or medium as control. The number of surviving cells was determined by CellTiter-Glo assay 1.5 hrs later. The final percent cell viability was calculated using the formula [(luminescencetest compound−luminescencencenegative control)/(luminescencencepositive control−luminescencenegative control)]×100, where wells with only LPS were used as positive controls and wells treated with LPS and nigericin were used as negative controls.
Cells were verified to be free of mycoplasma contamination.
In FIGS. 4, 6, and 8, PMA-differentiated LPS-primed human THP-1 were pre-treated with indicated concentrations of each compound for 1 h before adding nigericin or medium. The number of surviving cells was determined by CellTiter-Glo assay (FIGS. 4 and 6) and IL-1β in culture supernatants was assessed by ELISA (FIG. 8) 2 hrs later. […] In FIGS. 8 and 9, 40 μM concentration of test compounds were added. […] Graphs show the mean±s.d. and data shown are representative of three independent experiments. **P<0.01.

T2 sequence (P57764 whole entry): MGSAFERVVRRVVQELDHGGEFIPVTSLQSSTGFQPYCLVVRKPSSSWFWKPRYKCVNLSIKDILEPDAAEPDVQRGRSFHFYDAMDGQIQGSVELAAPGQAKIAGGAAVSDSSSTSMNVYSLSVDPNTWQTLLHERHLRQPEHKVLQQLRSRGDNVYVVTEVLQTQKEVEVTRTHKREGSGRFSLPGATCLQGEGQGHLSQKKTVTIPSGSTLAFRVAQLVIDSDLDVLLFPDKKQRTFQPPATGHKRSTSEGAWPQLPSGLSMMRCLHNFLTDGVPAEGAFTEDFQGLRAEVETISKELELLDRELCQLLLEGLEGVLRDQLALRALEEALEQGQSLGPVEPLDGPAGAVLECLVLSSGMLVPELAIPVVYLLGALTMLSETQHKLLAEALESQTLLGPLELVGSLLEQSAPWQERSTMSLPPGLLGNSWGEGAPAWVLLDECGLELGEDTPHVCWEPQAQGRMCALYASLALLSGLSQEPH
T1 sequence (P57764 1-271 limits assumed): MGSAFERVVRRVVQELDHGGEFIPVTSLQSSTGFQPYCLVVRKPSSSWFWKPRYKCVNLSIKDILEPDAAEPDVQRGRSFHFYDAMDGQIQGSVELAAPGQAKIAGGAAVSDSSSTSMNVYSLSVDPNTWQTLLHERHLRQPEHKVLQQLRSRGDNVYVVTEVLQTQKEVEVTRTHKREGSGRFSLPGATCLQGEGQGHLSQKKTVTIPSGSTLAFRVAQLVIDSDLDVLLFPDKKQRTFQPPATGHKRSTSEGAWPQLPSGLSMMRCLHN
C191A GSDMD, sequence (P57764 whole entry C191A): as the sequence (P57764 whole entry) above, with C191A counted along it

| Compound | C191S GSDMD-induced cell death (LDH release) ([1]; caspase-11 plus C191S GSDMD) | WT GSDMD-induced cell death (LDH release) ([1]; caspase-11 plus WT GSDMD) | IC50 [2] [nM] | LPS transfection-induced IL-1β secretion [3] | nigericin-induced IL-1β secretion [4] | caspase-1, GSDMD, pro-IL-1β processing and IL-1β secretion ([5]; 1 μM with copper gluconate) | caspase-1, GSDMD, pro-IL-1β processing and IL-1β secretion ([5]; 1 μM without copper) | fold loss of liposome leakage inhibition, C191A versus WT GSDMD [6] [fold] | processing of caspase-1, GSDMD and IL-1β [7] | binding to GSDMD according to MST [8] | inhibition of canonical inflammasome pyroptosis [9] |
| --- | --- | --- | --- | --- | --- | --- | --- | --- | --- | --- | --- |
| CCN(CC)C(=S)SSC(=S)N(CC)CC [C-23, Tetraethylthiuram disulfide] | only inhibited when 4 times as much disulfiram was added | strongly inhibited | 520 ± 30 | potency comparable to the pan-caspase inhibitor z-VAD-fmk | potency comparable to the pan-caspase inhibitor z-VAD-fmk | completely blocked | had no effect |  |  |  |  |
| Cc1ccc(S(=O)(=O)/C=C/C#N)cc1 [Bay 11-7082] |  |  |  |  |  |  |  | 2 | still inhibited processing | bound to GSDMD; also recorded: lower affinity | also inhibits the canonical inflammasome pathway; also recorded: more effective at inhibiting canonical inflammasome-dependent pyroptosis than disulfiram in the absence of copper |

Source: patent US20210267996A1, “Compounds for inhibition of inflammation” (Children`s Medical Center Corporation, priority 2018, published 2021)
